The results in this text go back to US20240409536A1, “COMPOUNDS AND METHODS FOR MODULATING SPLICING” (REMIX THERAPEUTICS INC., priority 2021, published 2024).

Molecules are shown by their SMILES. Counter-ions that a name gives are not always drawn.

For one test, the system named is HiBiT-tagged MYB protein. Briefly: HiBiT protein abundance assay, MYB (K562 HiBiT knock-in cells). Type of test: cell-based, human. The following applies: 24 hours. A digest of the protocol:
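K562 cells with endogenous HiBiT knock-in tag, 10-point 3-fold dilutions (top 10 μM final, ≤0.25% DMSO), 24 h at 37 °C. Lytic Nano-Glo HiBiT luminescence, normalized to DMSO and unmodified K562 baselines; IC50 is concentration giving 50% protein abundance from four-parameter fit.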
(HiBiT is a short tag that completes a luciferase, so light tracks the accessible tagged protein.)

The subject of the next test is MYB mRNA. Kind of test: Gene panel canonical junction qPCR assay, MYB CJ mRNA decrease. Type of test: cell-based, human. Conditions: Homo sapiens, canonical junction qPCR, read-out: MYB IC50 (decrease in CJ mRNA levels). A digest of the protocol:
(§1)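 A673 or K562 cells treated with compound; canonical exon-exon junction mRNA quantified by cDNA synthesis and RT-qPCR with junction-spanning primer/probe, normalized to GAPDH, GUSB or PPIA and DMSO (2^(−ΔΔCt)). Percent response from set ΔCt assay windows fitted to 4-parameter logistic; IC50 for CJ decrease.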
Background: Real-time PCR tracks product formation cycle by cycle.

The next test has as its system HTT mRNA. Kind of test: Gene panel canonical junction qPCR assay, HTT CJ mRNA decrease. Type of test: cell-based, human. Conditions: Homo sapiens, canonical junction qPCR, read-out: HTT IC50 (decrease in CJ mRNA levels). A digest of the protocol:
as §1

The next test relates to Target C mRNA. Briefly: Gene panel canonical junction qPCR assay, Target C CJ mRNA decrease. Type of test: cell-based. The following applies: Homo sapiens, canonical junction qPCR, read-out: Target C IC50 (decrease in CJ mRNA levels). A digest of the protocol: as §1
In a further test the test system is SMN2 mRNA. Briefly: Gene panel canonical junction qPCR assay, SMN2 CJ mRNA decrease. Type of test: cell-based, human. The following applies: Homo sapiens, canonical junction qPCR, read-out: SMN2 IC50 (decrease in CJ mRNA levels). A digest of the protocol:
as §1

For the molecule `Cc1cn2cc(NC(=O)c3ccc(N4C[C@@H](C)N[C@@H](C)C4)c4ccnnc34)cc(F)c2n1` [Compound 161, 5-(3,5-dimethylpiperazin-1-yl)-N-{8-fluoro-2-methylimidazo[1,2-a]pyridin-6-yl}cinnoline-8-carboxamide 2,2,2-trifluoroacetate], the IC50 (commonly the point on the concentration scale where inhibition reaches its midpoint) in the test with HiBiT-tagged MYB protein is under 0.1 µM; with MYB mRNA, under 0.1 µM; with HTT mRNA, 1 to 10 µM; in the test with Target C mRNA, 1 to 10 µM; in the test on SMN2 mRNA, under 0.1 µM.
Consider `Cc1ccc2c(N3CCNCC3)ccc(C(=O)Nc3cc(F)c4nc(C)cn4c3)c2n1` [Compound 162, N-{8-fluoro-2-methylimidazo[1,2-a]pyridin-6-yl}-2-methyl-5-(piperazin-1-yl)quinoline-8-carboxam-ide, trifluoroacetic acid], for which the IC50 in the test on HiBiT-tagged MYB protein is under 0.1 µM; in the test with MYB mRNA it was under 0.1 µM; with HTT mRNA it was 1 to 10 µM; with Target C mRNA, 1 to 10 µM; in the test with SMN2 mRNA, under 0.1 µM.
For the molecule `CC(=O)c1cc(NC(=O)c2ccc(N3CCNCC3)c3ccnnc23)cn2cc(C)nc12` [Compound 163, N-{8-acetyl-2-methylimidazo[1,2-a]pyridin-6-yl}-5-(piperazin-1-yl)cinnoline-8-carboxamide], the half-maximal inhibitory concentration (IC50) with HiBiT-tagged MYB protein is 1 to 10 µM; in the test with MYB mRNA, 1 to 10 µM; with HTT mRNA, over 10 µM; in the test with Target C mRNA it was over 10 µM; with SMN2 mRNA it was under 0.1 µM.
With `Cc1cn2cc(NC(=O)c3ccc(N4CCNCC4)c4ccnnc34)nc(C)c2n1` [Compound 164, N-{2,8-dimethylimidazo[1,2-a]pyrazin-6-yl}-5-(piperazin-1-yl)cinnoline-8-carboxamide 2,2,2-trifluoroacetate], the 50% inhibitory concentration (IC50) is 0.1 to 1 µM in the test on HiBiT-tagged MYB protein; 0.1 to 1 µM in the test on MYB mRNA; over 10 µM with HTT mRNA; over 10 µM with Target C mRNA; under 0.1 µM in the test on SMN2 mRNA.
Consider `Cc1cn2cc(NC(=O)c3ccc(N4CCNCC4)c4cccnc34)cc(F)c2n1` [Compound 165, N-{8-fluoro-2-methylimidazo[1,2-a]pyridin-6-yl}-5-(piperazin-1-yl)quinoline-8-carboxamide], for which the IC50 is under 0.1 µM in the test with HiBiT-tagged MYB protein; under 0.1 µM in the test on MYB mRNA; 1 to 10 µM with HTT mRNA; 1 to 10 µM in the test with Target C mRNA; under 0.1 µM in the test with SMN2 mRNA.
Take `Cc1cn2cc(NC(=O)c3ccc(N4CCNCC4)c4nnccc34)cc(F)c2n1` [Compound 166, N-(8-fluoro-2-methylimidazo[1,2-a]pyridin-6-yl)-8-(piperazin-1-yl)cinnoline-5-carboxamide 2,2,2-trifluoroacetate]: the IC50 in the test with HiBiT-tagged MYB protein, in the test with MYB mRNA, with HTT mRNA, in the test on Target C mRNA and with SMN2 mRNA was over 10 µM each time.
Consider `Cc1cn2cc(NC(=O)c3ccc(N4CCNCC4)c4ccnnc34)cc(C#N)c2n1` [Compound 167, N-{8-cyano-2-methylimidazo[1,2-a]pyridin-6-yl}-5-(piperazin-1-yl)cinnoline-8-carboxamide trifluoroacetic acid salt], for which the IC50 with HiBiT-tagged MYB protein was 0.1 to 1 µM; with MYB mRNA it was 0.1 to 1 µM; in the test on HTT mRNA it was 1 to 10 µM; in the test on Target C mRNA, over 10 µM; in the test on SMN2 mRNA it was under 0.1 µM.
For the molecule `CCc1cc(NC(=O)c2ccc(N3CCNCC3)c3ccnnc23)nn2cc(C)nc12` [Compound 168, N-{8-ethyl-2-methylimidazo[1,2-b]pyridazin-6-yl}-5-(piperazin-1-yl)cinnoline-8-carboxamide trifluoroacetic acid salt], the 50% inhibitory concentration (IC50) was 1 to 10 µM with HiBiT-tagged MYB protein; 1 to 10 µM in the test with MYB mRNA; over 10 µM in the test with HTT mRNA; over 10 µM with Target C mRNA; 0.1 to 1 µM with SMN2 mRNA.
On to `COc1ccc2c(N3CCNCC3)ccc(C(=O)Nc3cc(F)c4nc(C)cn4c3)c2n1` [Compound 169, N-{8-fluoro-2-methylimidazo[1,2-a]pyridin-6-yl}-2-methoxy-5-(piperazin-1-yl)quinoline-8-carboxamide], for which the IC50 was under 0.1 µM with HiBiT-tagged MYB protein; under 0.1 µM in the test on MYB mRNA; 1 to 10 µM in the test with HTT mRNA; 1 to 10 µM in the test on Target C mRNA; under 0.1 µM in the test with SMN2 mRNA.
Consider `Cc1cn2cc(NC(=O)c3ccc(N4C[C@@H](C)N[C@@H](C)C4)c4ccnnc34)nc(C)c2n1` [Compound 172, N-{2,8-dimethylimidazo[1,2-a]pyrazin-6-yl}-5-[(3R,5S)-3,5-dimethylpiperazin-1-yl]cinnoline-8-carboxamide], for which the 50% inhibitory concentration (IC50) in the test with HiBiT-tagged MYB protein is under 0.1 µM; in the test on MYB mRNA, 0.1 to 1 µM; in the test on HTT mRNA, over 10 µM; in the test on Target C mRNA, 1 to 10 µM; in the test on SMN2 mRNA, under 0.1 µM.
Take `COCCOc1ccc2c(N3CCNCC3)ccc(C(=O)Nc3cc(F)c4nc(C)cn4c3)c2n1` [Compound 173, N-{8-fluoro-2-methylimidazo[1,2-a]pyridin-6-yl}-2-(2-methoxyethoxy)-5-(piperazin-1-yl)quinoline-8-carboxamide]: the half-maximal inhibitory concentration (IC50) in the test with HiBiT-tagged MYB protein was under 0.1 µM; with MYB mRNA, under 0.1 µM; in the test with HTT mRNA, over 10 µM; in the test on Target C mRNA it was 1 to 10 µM; with SMN2 mRNA, under 0.1 µM.
As to `COc1cc(NC(=O)c2ccc(N3CCNCC3)c3ccnnc23)cn2cc(C)nc12` [Compound 176, N-{8-methoxy-2-methylimidazo[1,2-a]pyridin-6-yl}-5-(piperazin-1-yl)cinnoline-8-carboxamide trifluoroacetate], the IC50 with HiBiT-tagged MYB protein was 0.1 to 1 µM; in the test on MYB mRNA, 0.1 to 1 µM; in the test with HTT mRNA it was over 10 µM; in the test on Target C mRNA, over 10 µM; in the test on SMN2 mRNA it was under 0.1 µM.
As for `Cc1cn2cc(NC(=O)c3ccc(N4CCNCC4)c4ccnnc34)[nH]c(=O)c2n1` [Compound 177, N-{2-methyl-8-oxo-7H-imidazo[1,2-a]pyrazin-6-yl}-5-(piperazin-1-yl)cinnoline-8-carboxamide trifluoroacetic acid salt], the IC50 with HiBiT-tagged MYB protein, in the test with MYB mRNA, in the test with HTT mRNA, in the test on Target C mRNA and with SMN2 mRNA was 0.1 to 1 µM throughout.
As to `Cc1nc(NC(=O)c2ccc(N3CCNCC3)c3ccnnc23)cc2cn(C)nc12` [Compound 178, N-{2,7-dimethylpyrazolo[3,4-c]pyridin-5-yl}-5-(piperazin-1-yl)cinnoline-8-carboxamide], the 50% inhibitory concentration (IC50) in the test on HiBiT-tagged MYB protein was 0.1 to 1 µM; with MYB mRNA it was 0.1 to 1 µM; with HTT mRNA, over 10 µM; with Target C mRNA it was over 10 µM; with SMN2 mRNA, under 0.1 µM.
Regarding `COc1nc(NC(=O)c2ccc(N3CCNCC3)c3ccnnc23)cn2cc(C)nc12` [Compound 179, N-{8-methoxy-2-methylimidazo[1,2-a]pyrazin-6-yl}-5-(piperazin-1-yl)cinnoline-8-carboxamide], the half-inhibitory concentration (IC50) with HiBiT-tagged MYB protein is under 0.1 µM; in the test with MYB mRNA, under 0.1 µM; with HTT mRNA it was 1 to 10 µM; in the test with Target C mRNA, over 10 µM; in the test with SMN2 mRNA, under 0.1 µM.
Consider `Cc1c(O)c(NC(=O)c2ccc(N3CCNCC3)c3ccnnc23)cc2cn(C)nc12` [Compound 181, N-(6-hydroxy-2,7-dimethylindazol-5-yl)-5-(piperazin-1-yl)cinnoline-8-carboxamide], for which the IC50 is 1 to 10 µM in the test with HiBiT-tagged MYB protein; 0.1 to 1 µM in the test with MYB mRNA; over 10 µM with HTT mRNA; over 10 µM in the test on Target C mRNA; under 0.1 µM in the test on SMN2 mRNA.
Turning to `Cc1cn2cc(NC(=O)c3ccc(N4CCNCC4)c4ccnnc34)cc(C(C)O)c2n1` (stereo not shown) [Compound 182, N-[8-(1-hydroxyethyl)-2-methylimidazo[1,2-a]pyridin-6-yl]-5-(piperazin-1-yl)cinnoline-8-carboxamide trifluoroacetate], the concentration for half-maximal inhibition (IC50) with HiBiT-tagged MYB protein was over 10 µM; with MYB mRNA, over 10 µM; with HTT mRNA, over 10 µM; in the test on Target C mRNA, over 10 µM; in the test with SMN2 mRNA it was 1 to 10 µM.
Turning to `COc1cc2c(N3CCNCC3)ccc(C(=O)Nc3cc(F)c4nc(C)cn4c3)c2nn1` [Compound 183, N-{8-fluoro-2-methylimidazo[1,2-a]pyridin-6-yl}-3-methoxy-5-(piperazin-1-yl)cinnoline-8-carboxamide], the half-maximal inhibitory concentration (IC50) in the test with HiBiT-tagged MYB protein is under 0.1 µM; with MYB mRNA, under 0.1 µM; in the test with HTT mRNA, 1 to 10 µM; in the test on Target C mRNA, over 10 µM; in the test with SMN2 mRNA, under 0.1 µM.
Turning to `Cc1cn2cc(NC(=O)c3ccc(N4C[C@@H](C)N[C@@H](C)C4)c4nccnc34)cc(F)c2n1` [Compound 186, 8-(3,5-dimethylpiperazin-1-yl)-N-{8-fluoro-2-methylimidazo[1,2-a]pyridin-6-yl}quinoxaline-5-carboxamide], the IC50 was under 0.1 µM with HiBiT-tagged MYB protein; under 0.1 µM in the test with MYB mRNA; 1 to 10 µM in the test with HTT mRNA; over 10 µM with Target C mRNA; under 0.1 µM in the test with SMN2 mRNA.
Consider `Cc1cn2cc(NC(=O)c3ccc(N4CCN[C@@H](C)C4)c4nccnc34)cc(F)c2n1` [Compound 187, N-{8-fluoro-2-methylimidazo[1,2-a]pyridin-6-yl}-8-(3-methylpiperazin-1-yl) quinoxaline-5-carboxamide], for which the half-inhibitory concentration (IC50) was under 0.1 µM with HiBiT-tagged MYB protein; under 0.1 µM in the test on MYB mRNA; 1 to 10 µM in the test with HTT mRNA; over 10 µM in the test on Target C mRNA; under 0.1 µM with SMN2 mRNA.
